{"source": "patent US20170065554A1", "about": "“ACTIVATED SOY POD FIBER” (priority 2014, published 2017)", "system": "3T3-L1 adipocytes", "experiment": "[3H]-2-deoxy-glucose uptake by adipocytes", "format": "cell-based, Murine", "procedure": "To determine if one mechanism for glyceollins to improve the oral glucose challenge in a prediabetic model is by increasing the glucose uptake by fat, glyceollin pharmacology was studied in 3T3-L1 cells. Murine preadipocytes (Zen-Bio Inc.) were cultured using PM-1-L1 medium (Zen-Bio Inc.) containing Dulbecco's modified Eagle's medium (DMEM)/Ham's F-10 medium (1:1, v/v), HEPES 15 mM (pH 7.4), 10% (v/v) fetal bovine serum, penicillin (100 U/ml), streptomvcin ([…]), and amphotericin B (0.25 μg/ml) in a humidified atmosphere (5% CO2/95% air). After 3-4 days, confluent cells were placed in differentiation medium (DM-2-L1, Zen-Bio Inc.) containing DMEM/Ham's F-10 medium (1:1, v/v), HEPES 15 mM (pH 7.4), 3% (v/v) fetal bovine serum, biotin ([…]), pantothenate (17 μM), human insulin (100 nM), dexamethasone (1 μM), penicillin (100 U/ml), streptomycin (100 μg/ml), amphotericin B (0.25 μg/ml), isobutylmethylxanthine ([…]) and PPARγ agonist (10 μM) and further incubated in the humidified atmosphere for 3 days. […]\nAdipocytes were rinsed in sterile, fresh KRH buffer (HEPES pH=7.4, 1 mM CaCl2, 1.2 mM MgSO4, 1 mM KH2PO4, 1.4 mM KCl, […], 130 mM NaCl), and then preincubated for 24 h in KRH buffer. […] The vials were mixed and counted for 10 min in an Applied Biosystems 1100 liquid scintillation counter using the factory preset window to detect tritium.", "note": "Values joined by “and” are separate entries in the source; they are usually repeats but may differ in a detail not shown here. Equal values may be shown once."}
{"substance": "insulin", "values": [{"measurement": "maximal stimulation relative to basal glucose uptake", "setting": "0.3 nM-300 nM insulin", "value": "about 3 times"}, {"measurement": "EC50", "setting": "insulin 30 min at 37° C., then 10 min [3H]-2-deoxy-glucose, read-out: EC50 of insulin-mediated glucose uptake", "value": "1.9 nM and 1.92 nM"}]}
